Results published in patent publication US6994992B1, “Androgen-induced suppressor of cell proliferation and uses thereof” (Trustees of Tufts College, priority 1999, dated 2006).

What was measured:
[1] = tested on: LNCaP-FGC cells; assay: Proliferation of LNCaP-FGC cells in CDHuS with androgen; assay type: cell-based, human
Source text: Androgens regulate prostate cell numbers and cell proliferation by three major mechanisms: a) inhibition of cell death (apoptosis), b) induction of cell proliferation (Step-1), and c) inhibition of cell proliferation (proliferative shutoff, Step-2) (Isaacs (1985) Prostate 5:545–557; Bruchovsky et al. (1975) Vit. &Horm. 33:61–102; Sonnenschein et al., (1989) Cancer Res. 49:3474–3481). Androgens affect epithelial and stromal cell types which, in turn, interact in the prostate (Hayward et al., (1997) Brit. J. Urol. Suppl. 2: 18–26). […] Proliferation is inhibited in these cells by sex steroid-stripped (charcoal-dextran treated) human serum (CDHuS) (Sonnenschein et al., (1989) Cancer Res. 49:3474–3481). Low androgen concentrations cancel this inhibition (Step-1) and at higher levels, androgens induce an irreversible proliferative shutoff (Step-2) (Sonnenschein et al., (1989) Cancer Res. 49:3474–3481; Soto et al., (1995) Oncology Res. 7: 545–558). During the shutoff period, these cells remain in the G0/G1 phase of the cell cycle. Prostate specific antigen (PSA) induction, however, is still dependent on androgens in these postmitotic cells (Soto et al., (1995) Oncology Res. 7: 545–558). […]

[2] = tested on: STFX1 cells; assay: BrdU incorporation, percent BrdU-labeled nuclei of STFX1 cells containing vector only or AS3 antisense constructs; assay type: cell-based; details: for percent BrdU-labeled nuclei: 10 nM R1881 for 24 h, BrdU labeling
Source text: In particular, the AS3 antisense gene was cloned into the Clontech pRevTRE™ retroviral vector under the control of a tetracycline sensitive promoter. The promoter has seven repeats of the bacterial tetO operator sequence upstream of the minimal CMV promoter which can be bound by the tetracycline transactivator (tTA). The tTA is a fusion protein between the bacterial tetracycline repressor and the […] herpes virus transactivator. The tetracycline transactivator is sensitive for tetracycline such that, in the presence of tetracycline, the transactivator cannot bind the tetracycline promoter so the transgene is “off” and conversely, in the absence of tetracycline, the gene is “on” (i.e., the Tet-Off™ system; see, e.g., Clontech pRevTRE™ manual for further details).
The supernatants containing the highest amounts of virions were then used to infect the STFX1 cell line, a derivative of the MCF7-AR1 that has a tetracycline transactivator gene stably integrated. During the cloning and selection procedures, cells were maintained in 1 μg/mL of tetracycline to suppress the expression of the inducible transgenes.
In order to characterize the cell lines expressing AS3 antisense and the “control” cell lines having vector without insert, cells were incubated in the presence (i.e., the transgene is off) and absence of tetracycline (i.e., the transgene is on) and, after 36 hours, assayed for transcript expression using RT-PCR under standard conditions,
To determine the affect of androgen induced AS3 suppression of cellular growth, cells lines showing high levels of inducible AS3 antisense expression were chosen for further study. Cells were seeded onto coverslips in standard growth medium and allowed to grow for 5 days in the presence of 10 μg/ml tetracycline (hereafter “tet”). Then, vehicle or 10 nM of the androgen R1881 was added. Finally, 24 hours later, the cells were treated with 10 μg/ml of bromodeoxyuridine (BrdU) for several hours to measure the percent of cells actively proliferating as a function of BrdU incorporation during DNA replication. The cells were then fixed, Hoechst stained, and the percent number of BrdU-labeled cells was determined using immunocytochemistry (using standard BrdU labeling regents and protocols from Boheringer).

[3] = tested on: AS3; assay: Expression analysis of the AS3 transcript in LNCaP-FGC cells; assay type: cell-based, human
Procedure: Briefly, androgen-specific, low-abundance regulatory mRNA sequences expressed during the proliferative shutoff, were selected using the Wang-Brown approach (Wang et al., (1991) Proc. Natl. Acad. Sci. USA 88: 11505–11509). […] LNCaP-FGC cells were treated with 30 nM R1881 to generate proliferative shutoff. R1881 (methyltrienolone) is a synthetic, non-metabolized androgen (Roussell-UCLAF, Romainville, France). Exposure to androgen for 24 hours was required to commit LNCaP-FGC cells to an irreversible proliferative shutoff (Geck et al., (1997) J. Steroid Biochem. Mol. Biol. 63: 211–218). […] LNCaP-FGC cells reversibly arrested by CDHuS were considered as the shutoff-negative control; they were harvested after three days of CDHuS treatment. Total RNA was prepared by the acidic guanidinium-thiocyanate method and polyA RNA was purified by using the FastTrack™ kit (Invitrogen, San Diego, Calif.) (Chomczinsky et al., (1987) Anal. Biochem. 162: 156–159).
Furthermore, expression of the AS3 transcript positively correlated with proliferation arrest as this gene was expressed only in shutoff-positive cell lines and variants. […] An additional observation that indicates the AS3 gene codes for an inhibitor of the proliferation of prostate cells is the increase of AS3 mRNA levels in the rat prostate when proliferation was arrested by prolonged androgen administration. […]

[4] = CDHuS supplemented with 30 pM R1881

C[C@]1(O)CC[C@H]2[C@@H]3CCC4=CC(=O)CCC4=C3C=C[C@@]21C [R1881, methyltrienolone]
proliferation of LNCaP-FGC cells ([1]; 0.3–30 nM of R1881): inhibited from proliferating
proliferation of LNCaP-FGC cells [1, 4]: proliferated maximally
proliferative shutoff ([2]; AS3 levels reduced by antisense expression in the absence of tetracycline (sample 8 vs sample 6), 10 nM R1881): no longer induces a proliferative shutoff
percent BrdU-labeled nuclei ([2]; STFX1 cells with AS3 antisense construct, +tet (antisense uninduced)): 9.7 +/−0.6%
percent BrdU-labeled nuclei ([2]; STFX1 cells with AS3 antisense construct, −tet (antisense expressed)): 29.1 +/−1.6%
percent BrdU-labeled nuclei ([2]; STFX1 cells with empty vector, +tet (10 μg/ml)): 9.4 +/−1.7%
percent BrdU-labeled nuclei ([2]; STFX1 cells with empty vector, −tet (vector induced)): 10.7 +/−0.9%
number of proliferating cells in S phase ([2]; cellular levels of AS3 unaffected (samples 2, 4, 6) compared to sample 1 without androgen, 10 nM R1881): significant decrease
AS3 expression ([3]; 0.3–30 nM of R1881): strongly induced
AS3 expression [3, 4]: not expressed
